Measured values reported in US20240238237A1, “CONJUGATED LINOLEIC ACID SUPPLEMENTATION FOR DISEASE TREATMENT” (VIRGINIA TECH INTELLECTUAL PROPERTIES, INC., priority 2021, published 2024).
“Also recorded” adds a separate entry of the source.

Tests used:
Type in all cases: in vivo, mouse
[1] = tested on: hypothalamic gene expression; experiment: Hypothalamic RNA-seq and RT-QPCR
Description: Fresh hypothalamus tissue was lysed in TRIzol® using a rotor stator homogenizer. TRIzol samples were frozen at −20° C. in microfuge tubes until purified (2 weeks to 5 months). […] Purified RNA was then DNAse-treated using TURBO DNA-free™ Kit (ThermoFisher #AM1907) according to manufacturer's instructions, diluted to 60 ng/μL in nuclease-free water, and stored at −80° C.
RNA sequencing and library preparation was performed by Virginia Tech's Genomics Sequencing Center facility at the Fralin Life Sciences Institute. […] The library was enriched by 14 cycles of PCR, validated using Agilent TapeStation, and quantitated by qPCR. Individually indexed cDNA libraries were pooled and sequenced on NextSeq 75 SR. The Illumina NextSeq Control Software v2.1.0.32 with Real Time Analysis RTA v2.4.11.0 was used to provide the management and execution of the NextSeq 500 and to generate binary base call (BCL) files. The BCL files were converted to FASTQ files, adapters trimmed, and demul-tiplexed using bcl2fastq Conversion Software v2.20. FASTQ files were aligned to mouse genome GRCm38.p6 using the Geneious RNA assembler 2 Jan. […] Raw read counts were quantified to gene and/or transcript annotations with loss of strand-specificity. Differential expression analysis across experimental conditions was performed using the DESeq2 plugin in Geneious Prime. Default settings for filtering low-expression mapped genetic features were used for the DESeq2 plugin. False discovery rate (FDR) was calculated using the Benjamini-Hochberg procedure with a threshold for significance of FDR <0.10. Additionally, raw read counts were used to quantify differential expression through edgeR and voom using the DEApp online webserver. Low-expression mapped genetic features were removed with log 2CPM <1 in 2 or more samples. The results from the three differential expression methodologies, DESeq2, edgeR, and voom, were compared using R and spreadsheet software such as Microsoft Excel. Differentially expressed genes were analyzed for gene-ontology enrichment with MouseMine.
Reactions of 10 μL were performed using 150 nM final primer concentration. […] A 90 ng measure of RNA was used per 10 μL reaction. Two to three technical replicates were performed. Control reactions for each sample (minus reverse-transcriptase and minus template controls) were used for quality control. […] Quality-control measures including melt-curve analysis, technical replicate analysis, etc., were analyzed by thermocycler software and by operator; any major errors were excluded from analysis when deemed appropriate by the quality-control software, and/or new samples and plates were run. Candidate reference genes for ddCT analysis were analyzed and mouse beta-actin was chosen as the reference gene control for all experiments.
The numbers of samples in statistical tests are described in respective figures. The 2ddCT method of relative quantification was used. Statistical significance tests were performed on respective ddCT values, from which Relative Quantification values were derived. A two-way ANOVA with Bonferroni correction was used for relative expression of RNA normalized to WT or control conditions.

[2] = tested on: cecal bacterial communities; experiment: Cecum microbiome analysis (16S rRNA sequencing)
Description: Cecal samples were flash-frozen in liquid nitrogen and stored at −80° C. DNA was isolated from cecal content using a DNeasy PowerSoil Pro Kit (Qiagen #47014) and the TissueLyser II (Qiagen #85300). Fifty nanograms of genomic DNA was utilized for amplifi-cation of the V4 variable region of the 16S rRNA gene using 515F/806R primers. Forward and reverse primers were barcoded to accommodate multiplexing up to 384 samples per run as described by Kozich and colleagues. Paired-end sequencing (2×250 bp) of pooled amplicons was carried out using an Illumina Miseq platform with ˜30% PhiX DNA.
Demultiplexing, adapter trimming, and generating the fastq files were performed au-tomatically using the Miseq Reporter on the instrument computer. Bioinformatics analysis was then conducted using the QIIME 2 platform. Denoising was performed with an initial quality filtering followed by the Deblur algorithm. Representative amplicon sequence variants (ASVs) were used to generate a phylogenetic tree with FastTree, and taxonomy was assigned using a Naive Bayes classifier trained on the Greengenes 13_8 reference. To evaluate diversity metrics, samples were rarefied to an even depth of 4397 quality-filtered reads. Beta diversity was assessed using the weighted Unifrac distances and visualized using the principal coordinate analysis (PCoA) plot.
Statistical analyses for microbiome data were performed in R v4.0.5. Differences in beta diversity were evaluated using permutational multivariate analysis of variance (PERMANOVA) with 999 permutations and including the weighted Unifrac distance matrix. The Kruskal-Wallis test was used to evaluate alpha metrics and taxonomic differences and the Dunn's test was used to evaluate pairwise multiple comparisons, with p-values corrected for multiple testing using the false discovery rate (FDR) approach.

[3] = tested on: Normal, Snord116m+/p− (PWS model) and PWS KO mice; experiment: Body weight, body fat and lean mass, 12-week feeding study, Example 2; details: 12 weeks, CLA 0.5% per gram food
Excerpt: Normal an d Snord116^m+/p− mice (PWS model), as well as mice with a complete deletion of Snord116 (PWS KO) were randomly divided into control or CLA-treatment groups. the diets (from Envigo/Harland-Teklad) were composed of 20% fat, and matched in all other components. Conjugated linoleic acid (Tonalin™, composed of 60%-90% of the cis-9, trans-11 and trans-10, cis-12 CLA isomers in a 50/50 ratio) was provided to the CLA-treatment groups to equal 0.5% per gram food intake.
Adult mice (aged 8-10 weeks) were housed individually, and given ad libitum access to either control or CLA food for 12 weeks. They were weighed weekly, and food intake, body fat, body lean mass, and rectal temperature were measured weekly.

For conjugated linoleic acid [CLA], the “Chmp1b mRNA, verification QPCR” value ([1]; QPCR, p=0.01) was “increase was maintained”, the “Retreg2 mRNA, validation QPCR” value ([1]; QPCR, p=0.22) was “not significant” and the “Genes up-regulated by CLA diet” value ([1]; RNA-seq) was 135 genes. The “Retreg2 mRNA reduction” value ([1]; RNA-seq, CLA diet treatment on PWS mice) was 0.89 fold, the “Differentially expressed genes between control diet and CLA diets” value ([1]; RNA-seq, WT and PWS hypothalamus) was 431 genes and the “Chmp1b mRNA increase with CLA diet” value ([1]; RNA-seq, both genotypes) was 1.27 fold. For the same substance, the “Mael expression in PWS mice” value ([1]; RNA-seq, not confirmed by RT-QPCR) was “rescued”, the “Gene Ontology enrichment, WT response to CLA diet” value ([1]; WT only) was “starvation, nutrient levels, and cellular stress were significantly enriched” and the “Gene Ontology enrichment, CLA vs control” value ([1]; all genotypes) was “significantly enriched processes related to ribosomal RNA processing, cellular metabolic processes, and aging, lethality, or survival processes”. The “Relative abundance of Cyanobacteria” value ([2]; CLA vs control diet, p=0.04) was “lower”, the Firmicutes phylum overall ([2]; H=3.74, p=0.59) was “not significantly affected” and the Sutterella sp. ([2]; H=13.8, p=0.02) was “significantly increased”. For the same substance, the Ruminococcus sp. ([2]; all genotypes) was “reduced”, the Turicibacter sp. ([2]; all genotypes, H=15.7, p=0.008) was “significantly reduced” and the “Relative abundance of the other phyla” value ([2]; between diets, p>0.09) was “similar”. The α-diversity metrics ([2]; control vs CLA, p≤0.02) was “differed”, the β-diversity measures ([2]; weighted Unifrac) was “significantly impacted” and the “Lean (muscle) mass” value [3] was “no changed; also recorded: did not change”. For the same substance, the Body fat ([3]; vs control diet) was “significant reduction” and the Body weight ([3]; vs control diet) was “significant reduction”.
